Experimental data reported in publication PMC11468675, “Near‐Infrared Bodipy‐Based Molecular Rotors for β‐Amyloid Imaging In Vivo” (Advanced Healthcare Materials, 2023).
Where “and” joins values, the source holds several entries; their conditions need not be identical. Equal entries are not always repeated.

Assays:
[1] = target: T1, Aβ1–42 aggregates (Homo sapiens, UniProt P05067); test: Fluorescence enhancement assay with Aβ aggregates; type: binding; conditions: for Em, with Aβ / Em shift, with Aβ: 10% ethanol/PBS; for Em shift, with Aβ: + red shift, − blue shift; for Fluorescence enhancement (Fold = FL intensity probe+Aβ / probe): probe 1 μM in 10% EtOH/PBS, Aβ aggregates 33 µg mL−1
T1 construct: purchased Shanghai Macklin Biochemical Technology Co., Ltd
From the text: Thioflavin‐T (ThT) is the gold standard probe, commonly used as an in vitro fluorescence stain to determine the existence of Aβ aggregates. The ThT probe has a typical D–A structure, and its HOMO and LUMO electron clouds are redistributed from the donor (HOMO) to the acceptor (LUMO), which is typical for ICT probes.^[ [46] ^] In addition, the single bond between the benzene ring in the ThT probe and the benzothiazole salt, and the N,N‐dimethylamino group attached to the benzene ring can rotate freely, resulting in ThT becoming a molecular rotor. After ThT binds to Aβ, the rotation of the molecular rotor is restricted, and most of the electrons in the excited state return to the ground state by radiative transition, resulting in a substantial increase in fluorescence. […] The fluorescence response of TPyrBDP, TPipBDP, and THAIBDP with Aβ1–42 aggregates and BSA was evaluated in PBS (10% ethanol) solution. The formation of Aβ1–42 aggregates was characterized by TEM. The morphology of Aβ1–42 aggregates was filamentous (Figure S25b, Supporting Information), while the morphology of Aβ1–42 oligomers was a point‐like structure with a minimum diameter 44 nm (Figure S25a, Supporting Information). The images confirmed that Aβ1–42 aggregates were prepared successfully. As shown in Figure 2c‐f and Table S1, Supporting Information, a 42.5‐fold enhancement of fluorescence was observed when TPyrBDP interacted with the Aβ1–42 aggregates. […] The results confirmed the calculation results in Figure 1. […] In Figure 1b, the three probes are inserted into the hydrophobic pocket of Aβ1–42 aggregates when they interact with Aβ1–42 aggregates, resulting in changes of λ em. The fluorescence response of BSA with probes may cause non‐specific fluorescence enhancement, thus generating false signals. Therefore, we evaluated the interaction between the three probes and BSA. […] The selectivity of TPyrBDP, TPipBDP, and THAIBDP to different ions and amino acids was also evaluated. […] The ions and amino acids had no influence on the fluorescence enhancement of the probes. To quantify the binding affinity (K d) of the probes to Aβ1–42 aggregates, fluorescence‐based saturation binding assays were conducted using Aβ1–42 aggregates. The lower the K d values, the better the affinities.
To a solution of HFIP (600 μL) was added hum an Aβ42 (1 mg). After that, the solution was ultrasonicall y t reated for 2 min to destroy the oligomer probabl y formed, followed b y placing the mixture into an ice bath for 2 h. The solution was dispensed 20 μL per cent rifuge tube, dried by nitro gen, and stored at −80 °C.
To a centrifuge tube (containing 33 μg of Aβ42) was added 540 μL of PBS and 1% hydrox yl amine solution (60 μL); the solution was s haken on a shaker (300 rpm) at 37 °C for 72-96 h to form the Aβ42 aggregates. The Aβ42 aggregates were characterized by transmission electron microscop y (TEM).
Fluorescence Enhancement Assay
To a solution of probes were added pretreated Aβ42 aggregates (33 μg) or bovine serum albumin (BSA). The mix ture (the final concentration of probes was 1μM in 10% EtOH/PBS) was immediatel y transferred to a fluorescence spectrophot ometer (U-3900H, HITACHI, J apan) to record their spectrum (Ex slit = 10 nm, Em slit = 20 nm).
The probes alone (1μM in 10% EtOH/PBS), PBS, and BSA were also tested under the same conditions. The fluorescence enhancem ent was calculated usin g the followin g formula: fold = the fluorescence intensit y of the probe with Aβ42 or BSA/the fluorescence intensit y of probe alone. […]
(1 picture or pasted object on this page, not shown here)

[2] = Hemolysis rate assay; type: cell-based; conditions: human, human red blood cells separated from whole blood, probe up to 100 µM, room temperature
Method: A cytotoxicity assay is one of the methods to evaluate the biocompatibility of probe molecules. Probes are generally considered to have low cytotoxicity when the cell viability is above 80%. Therefore, the cytotoxicity of TPyrBDP, TPipBDP, and THAIBDP was evaluated using PC12 cells using a standard MTT assay method. […] The hemolysis rate of probes is one of the common methods to evaluate the effect of probes on the blood of live animals. Therefore, the hemolysis rate of probes TPyrBDP, TPipBDP, and THAIBDP with blood samples was also evaluated. […] Therefore, the probes were suitable for subsequent cell experiments and animal experiments.
(§1) In Vitro Brain Slice Fluorescence Staining
The paraffin-embedded blank sections (5 μm) were immersed in x ylene for 5 min for deparaffinization and then washed with ethanol for 2 min and water for 5 min. The brain slices were incubated with 40 μL of 10 mg/ m L ThT for 5 min and washed with 50% ethanol solution for 3 min. Next, the brain sl ices were incubated with 40 μL of 1 μM probes for 20 min. After absorbin g th e residual liquid with dust-free paper, th e antifluorescence attenuating agent was added dropwise, and neutral gum was used for mounting. The slices were then placed under a laser confocal microscope (Lecia SP5) […]
Hemolysis Rate (HR) Assay
Human blood (1 m L, provided b y China-J apan Friendly Hospital, Beijing, China) was first diluted with 2 m L of PBS solution; the sample was centrifugated for 10 min (8000 rpm) and washed with PBS 5 times to separate red blood cells from serum. Finall y, the red blood cells were dispersed in 10 m L of P BS solution, from which 0.2 m L was taken, and 0.8 m L of different reagents (P BS, DI water, and 10, 20, 30, 50, and 100 μM of probes) was added. After mix ing evenl y, the samples were allowed to stand still for 3 h at room temperature and centrifuged (12,000 rpm, 5 min) to determine hemolysis circumstances. The supernatant (100 μL) was transferred to 96-well plates, and its ultraviolet absorption (Ex = 490 nm) was evaluated. […]

[3] = Cytotoxicity MTT assay; type: cell-based; conditions: rat, PC12 cells, read-out: Cell viability
Method: The cells used for the cyt otox icit y t est were PC12, purchased from the Chinese National Infrastructure of Cell Line Resource. The experiment was divid ed into two parts, cell culture, and c yt otox icit y test. The PC12 cells were first cultured in cell culture fluid (high-glucose DMEM/heat-inactivated FBS/ heat-inactivated HS /penicillin and streptomycin = 100: 5: 5: 1, v/v) under 5% CO2 at 37 °C. After a period of incubation, PC12 were transferred into a sterile 96-well plate (1 × 10^4 cells per well) and cultured
for 24 h under 5% CO2 at 37 °C. After that, the cell culture fluid was removed, and gradient concentrations of probes (TP yrBDP, TPipBDP, THAIBDP), Aβ in the cell culture fluid (0, 2, 5, 10, 12, and 15 μM), or probes+ Aβ in th e cell culture fluid (5 μM probe + 10 μM Aβ) were added into the 96-well plate and incubat ed for another 24 h.
After that, the gradient concentration of probes or Aβ was removed and MTT (5× MTT was diluted into 1× MTT using dilution buffer, 50 μL per well) was added; t he mix ture was incubated at 37 °C for 4 h. The supernatant was removed, and form azan (150 μL per well) was added; the mix ture was placed on a shaker to be mix ed well. The cell viabilit y was determined by a microplate reader at 490 nm.

[4] = target: T1, Aβ1–42 aggregates; test: Fluorescence-based saturation binding assay; conditions: 10% EtOH/PBS, triplicate
[5] = target: Aβ plaques in brain slices (Homo sapiens, UniProt P05067); test: In vitro brain slice fluorescence staining, co-staining with ThT; conditions: Tg mice slices, 13-month-old, female
Method: To confirm whether the probes could bind Aβ deposits in brain slices, the fluorescence staining experiment were performed using slices of Tg mice (13‐month‐old, female). The staining results were imaged using CLSM. To ensure the accuracy of the staining results, commercial fluorescent dye ThT was used to co‐stain the same sections. The fluorescence signals of the slices were acquired at the same position using different channels of the CLSM. As shown in Figure 4 and Figure S27–S29, Supporting Information, Aβ plaques were highlighted by the probes with a high signal‐to‐background ratio. In contrast, there was no fluorescence signal for wild‐type slices (Figures S30–S32, Supporting Information). Since Aβ plaques are abundantly produced in the hippocampal and cortical regions of the brain, we imaged the corresponding regions of the slices, respectively. The staining results with ThT (Figure 4a,b,i,j,q,r) are shown in green, and the staining results of the probes TPyrBDP (Figure 4c,d), TPipBDP (Figure 4k,l), and THAIBDP (Figure 4s,t) are shown in red. All three probes could stain Aβ plaques both in the hippocampal and cortical regions successfully, and the corresponding merged image further confirmed the staining results. To quantify the colocalization effect, the Pearson correlation coefficients (R‐value) were calculated using ImageJ software. The closer the R‐value is to 1, the better the colocalization of the probe and ThT.
as §1
The paraffin-embedded blank sections (5 μm) were immersed in x ylene for 5 min for deparaffinization and then washed with ethanol for 2 min and water for 5 min. […]
Human blood (1 m L, provided b y China-J apan Friendly Hospital, Beijing, China) was first diluted with 2 m L of PBS solution; the sample was centrifugated for 10 min (8000 rpm) and washed with PBS 5 times to separate red blood cells from serum. […] The supernatant (100 μL) was transferred to 96-well plates, and its ultraviolet absorption (Ex = 490 nm) was evaluated. […]

[6] = target: T1, Aβ1–42 aggregates; test: In vitro Aβ42 aggregate staining in solution (CLSM); type: binding; conditions: probe 5 µM, ThT 10 µM
Method: In Vitro Aβ42 staining in solution
Aβ42 aggregates were prepared according to the literature reported method 2. Aβ42
aggregate solution (20 μL) was added dropwise to a slide (CITOTEST), and then spread
until dry. ThT (10 μM, 20 μL) was added dropwise and spread until it was dry. Prob es
were added dropwise and spread until dr y. Anti-fluorescence quenchin g reagent (10-20
μL) was added dropwise and covered with a cover slide. The fluorescence signal was
captured b y C LSM. λex (ThT) = 488 nm, λem (ThT) = 508-550 nm; λex (probe) = 633 nm,

[7] = target: Aβ aggregates; conditions: reported probe; ref (8); cited from earlier work
[8] = test system: Aβ1–42 aggregates in PC12 cells; test: Cell imaging of Aβ1–42 aggregates, co-staining with ThT; type: cell-based
From the text: PC12 cells were used to study the affinity between TPipBDP and Aβ1–42 aggregates. Aβ1–42 aggregates have great neurotoxicity to interfere with the normal function of the brain. […] To study the imaging of TPipBDP with Aβ1–42 aggregates, the imaging effect of TPipBDP with Aβ1–42 aggregates was studied in PC12 cells. […] After adding Aβ1–42 aggregates to PC12 cells, some smaller‐than‐cell green fluorescence (ThT) and red fluorescence (TPipBDP) spots were observed. These smaller‐than‐cell bright fluorescence spots were Aβ1–42 aggregates. The Aβ1–42 aggregates can be clearly observed in the bright field image. […]
After that, the gradient concentration of probes or Aβ was removed and MTT (5× MTT was diluted into 1× MTT using dilution buffer, 50 μL per well) was added; t he mix ture was incubated at 37 °C for 4 h. […] The cell viabilit y was determined by a microplate reader at 490 nm.
To a centrifuge tub e (containing 1 mg of Aβ42) was added 180 μL of DMSO and 720 μL of PBS (pH = 7.2-7.4, Hyclone) and 1% hydrox ylamine solution (100 μL); the solution was shaken on a shaker (300 rpm) at 37 °C for 7 da ys to form the Aβ42 aggregates. Initial peptide concentrations were determined spectrophotometricall y at 280 nm, using an extinction coefficient of 1280 M-1cm-1. […]

Sequence of Aβ plaques in brain slices (P05067 672-711 limits assumed): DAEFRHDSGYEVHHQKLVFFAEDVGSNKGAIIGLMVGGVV
T1 sequence (P05067 672-713 limits assumed): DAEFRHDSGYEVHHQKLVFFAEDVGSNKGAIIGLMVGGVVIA

| Em, with Aβ [1] [nm] | Em shift, with Aβ [1] | λem redshift after interacting with Aβ1–42 aggregates ([1]; PBS (10% ethanol)) | Fluorescence enhancement (Fold = FL intensity probe+Aβ / probe) [1] | Kd [4] [nM] | Pearson correlation coefficient (R-value) with ThT, cortex region [5] | Pearson correlation coefficient (R-value) with ThT, hippocampus region [5] | Staining of Aβ1–42 aggregates in solution [6] | λem blueshift after interacting with Aβ1–42 aggregates ([1]; PBS (10% ethanol)) | Compound | hemolysis at 3 h [2] [%] | viability at 24 h [3] [%] | Kd [7] [nM] | R-value (colocalization with ThT), probe + Aβ group ([8]; PC12 cells with Aβ1–42 aggregates (10 µM)) | R-value (colocalization with ThT), control group ([8]; PC12 cells without Aβ) |
| --- | --- | --- | --- | --- | --- | --- | --- | --- | --- | --- | --- | --- | --- | --- |
| 693 | +13 nm | ≈ 13 nm | 42.48 fold and 42.5 fold | 54.2 ± 5.82 | 0.85 | 0.87 | stained Aβ1–42 aggregates successfully | – | CC1=CC(C)=[N+]2C1=Cc1c(C)cc(/C=C/c3ccc(N4CCCC4)s3)n1[B-]2(F)F [TPyrBDP] | < 5 | > 80 | – | – | – |
| – | – | – | – | – | – | – | – | – | Cc1cc(/C=C/c2ccc(N(C)C)cc2)n2c1C=C1C=CC=[N+]1[B-]2(F)F [BAP-1] | – | – | 44.1 | – | – |
| 692 | -27 nm | – | 75.54 fold and 75.5 fold | 28.3 ± 5.94 | – | – | – | ≈ 27 nm | CC1=CC(C)=[N+]2C1=Cc1c(C)cc(/C=C/c3ccc(N4CCCCC4)s3)n1[B-]2(F)F [TPipBDP] | < 5 | > 80 | – | 0.84 | 0.65 |
| 701 | -22 nm | – | 27.23 fold and 27.2 fold | 28.2 ± 3.07 | – | 0.72 | stained Aβ1–42 aggregates successfully | ≈ 22 nm | CC1=CC(C)=[N+]2C1=Cc1c(C)cc(/C=C/c3ccc(N4CCCCCC4)s3)n1[B-]2(F)F [THAIBDP] | < 5 | > 80 | – | – | – |
